From ChEMBL document CHEMBL1136714 (J Med Chem, 2003)

Columns and labels:
[1] = target: Norepinephrine transporter (Rattus norvegicus, UniProt Q9WTR4); assay: Binding affinity towards norepinephrine transporter in rat striatum using [3H]nisoxetine as radioligand; assay type: tissue-based
[2] = target: T1, Sodium-dependent dopamine transporter (Rattus norvegicus, UniProt P23977); assay: Binding affinity towards dopamine transporter in rat striatum using [3H]WIN-35 428 as radioligand; assay type: tissue-based
T1 sequence (P23977 whole entry): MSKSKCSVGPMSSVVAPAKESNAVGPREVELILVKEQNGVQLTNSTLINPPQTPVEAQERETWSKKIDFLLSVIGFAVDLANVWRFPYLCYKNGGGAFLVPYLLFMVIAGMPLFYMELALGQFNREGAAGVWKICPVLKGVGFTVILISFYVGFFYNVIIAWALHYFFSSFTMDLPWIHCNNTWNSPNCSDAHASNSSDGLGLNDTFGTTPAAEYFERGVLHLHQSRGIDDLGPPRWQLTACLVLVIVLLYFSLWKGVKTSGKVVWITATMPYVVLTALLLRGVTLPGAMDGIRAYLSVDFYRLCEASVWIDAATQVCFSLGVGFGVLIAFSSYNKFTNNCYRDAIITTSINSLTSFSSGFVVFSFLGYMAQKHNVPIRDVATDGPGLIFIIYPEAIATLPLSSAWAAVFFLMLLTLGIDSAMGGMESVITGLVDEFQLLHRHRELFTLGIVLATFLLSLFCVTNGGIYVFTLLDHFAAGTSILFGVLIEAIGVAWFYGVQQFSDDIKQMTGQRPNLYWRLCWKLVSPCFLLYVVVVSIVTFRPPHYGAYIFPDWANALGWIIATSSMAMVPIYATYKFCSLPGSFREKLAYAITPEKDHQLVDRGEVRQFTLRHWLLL

[3] = target: Sodium-dependent serotonin transporter (Rattus norvegicus, UniProt P31652); assay: Binding affinity towards serotonin transporter in rat striatum using [3H]citalopram as radioligand; assay type: tissue-based
Sodium-dependent serotonin transporter, sequence (P31652 whole entry): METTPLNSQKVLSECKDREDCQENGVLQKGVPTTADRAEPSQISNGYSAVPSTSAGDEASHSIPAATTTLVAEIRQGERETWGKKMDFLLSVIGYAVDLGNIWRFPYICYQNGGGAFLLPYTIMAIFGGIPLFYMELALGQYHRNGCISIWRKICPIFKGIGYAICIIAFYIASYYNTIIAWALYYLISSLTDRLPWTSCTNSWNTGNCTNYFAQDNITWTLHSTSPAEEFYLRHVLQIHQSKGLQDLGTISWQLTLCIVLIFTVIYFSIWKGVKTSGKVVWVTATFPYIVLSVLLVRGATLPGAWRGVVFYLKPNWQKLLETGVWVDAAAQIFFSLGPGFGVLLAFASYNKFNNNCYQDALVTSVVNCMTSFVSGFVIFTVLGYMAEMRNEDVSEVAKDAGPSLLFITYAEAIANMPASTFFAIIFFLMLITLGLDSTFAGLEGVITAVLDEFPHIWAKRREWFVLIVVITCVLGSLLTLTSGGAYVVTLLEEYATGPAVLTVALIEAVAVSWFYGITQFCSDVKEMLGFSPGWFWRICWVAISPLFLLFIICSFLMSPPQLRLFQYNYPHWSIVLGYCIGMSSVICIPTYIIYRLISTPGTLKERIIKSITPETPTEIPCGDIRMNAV

[4] = target: T1, Sodium-dependent dopamine transporter; assay: Inhibition of uptake from dopamine transporter in rat striatum using [3H]DA as radioligand; assay type: functional, tissue-based

Norepinephrine transporter, sequence (Q9WTR4 whole entry): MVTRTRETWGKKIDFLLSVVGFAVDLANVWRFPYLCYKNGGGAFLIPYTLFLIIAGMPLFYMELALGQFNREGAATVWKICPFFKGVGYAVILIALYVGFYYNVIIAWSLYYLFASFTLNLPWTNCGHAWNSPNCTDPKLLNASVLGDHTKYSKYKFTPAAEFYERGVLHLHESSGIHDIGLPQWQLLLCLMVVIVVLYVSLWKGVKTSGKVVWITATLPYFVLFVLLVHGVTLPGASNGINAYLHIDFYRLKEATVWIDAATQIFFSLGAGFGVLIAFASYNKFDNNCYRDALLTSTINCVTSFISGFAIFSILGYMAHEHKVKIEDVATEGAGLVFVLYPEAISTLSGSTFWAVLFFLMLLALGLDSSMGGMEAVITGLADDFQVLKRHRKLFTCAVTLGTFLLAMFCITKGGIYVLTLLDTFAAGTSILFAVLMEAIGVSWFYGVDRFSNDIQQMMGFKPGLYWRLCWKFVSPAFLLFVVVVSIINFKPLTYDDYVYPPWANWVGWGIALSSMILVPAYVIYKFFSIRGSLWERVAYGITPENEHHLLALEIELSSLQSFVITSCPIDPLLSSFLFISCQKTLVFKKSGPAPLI

Row | Structure (SMILES) | IC50 [1] | IC50 [2] | IC50 [3] | IC50 [4]
1 | O=C1CN(Cc2ccc(F)cc2)CC[C@H]1CCOC(c1ccccc1)c1ccccc1 | 6.3 µM | 0.099 µM | 7.75 µM | 
2 | CCC(=O)O[C@@H]1CN(Cc2ccc(F)cc2)CC[C@H]1CCOC(c1ccccc1)c1ccccc1 | 35.8 µM | 0.583 µM | 178 µM | 
3 | O[C@@H]1CN(Cc2ccc(F)cc2)CC[C@H]1CCOC(c1ccccc1)c1ccccc1 (racemic) | 1.03 µM | 0.00414 µM | 2.36 µM | 0.00322 µM
4 | Fc1ccc(CN2CC=C(CCOC(c3ccccc3)c3ccccc3)CC2)cc1 |  | 0.0378 µM | 1.11 µM | 
5 | OC1CN(Cc2ccc(F)cc2)CC[C@@H]1CCOC(c1ccccc1)c1ccccc1 (stereo not given in full) | 1.88 µM | 0.00046 µM | 3.6 µM | 0.00405 µM
6 | O[C@H]1CN(Cc2ccc(F)cc2)CC[C@H]1CCOC(c1ccccc1)c1ccccc1 (racemic) | 2.15 µM | 0.0112 µM | 3.31 µM | 0.0101 µM
7 | Fc1ccc(CN2CCC(CCOC(c3ccccc3)c3ccccc3)CC2)cc1 |  |  |  | 0.00248 µM
8 | O[C@@H]1CN(Cc2ccc(F)cc2)CC[C@H]1CCOC(c1ccccc1)c1ccccc1 | 1.55 µM | 0.0567 µM | 1.83 µM | 0.038 µM
